Test results from patent US6403602B1 (priority 1997, dated 2002).
Entries after “also recorded” stand apart in the source; their conditions may differ.

What was measured:
[1] = test system: nociception (tail-flick); assay: Tail-flick test after intracerebroventricular administration; assay type: in vivo; settings: rat tail-flick
[2] = biological target: mu opioid receptors (Cavia porcellus, UniProt A0ACM8Q262); assay type: binding, guinea pig
[3] = biological target: T1, delta receptors (Cavia porcellus, UniProt A0A286XTF2); assay: biochemical; assay type: binding, guinea pig
T1 construct: The brains were then homogenized in 50 mM Tris HCl, buffer pH 7.7, using a Polytron; from tissue; host or cells: guinea pig brain homogenate (membrane pellet)
T1 sequence (A0A286XTF2 1-366): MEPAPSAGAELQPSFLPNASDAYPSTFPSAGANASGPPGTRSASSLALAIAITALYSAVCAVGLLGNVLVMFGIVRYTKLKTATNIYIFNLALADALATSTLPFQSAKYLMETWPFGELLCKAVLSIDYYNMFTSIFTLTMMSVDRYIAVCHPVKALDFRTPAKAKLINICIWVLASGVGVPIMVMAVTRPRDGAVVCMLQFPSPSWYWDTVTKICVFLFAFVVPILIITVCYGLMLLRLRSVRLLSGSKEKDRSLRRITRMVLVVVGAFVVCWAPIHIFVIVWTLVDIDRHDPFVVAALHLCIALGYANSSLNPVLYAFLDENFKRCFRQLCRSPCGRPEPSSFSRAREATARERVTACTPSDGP

[4] = biological target: T2, kappa1 sites (Cavia porcellus, UniProt P41144); assay: biochemical; assay type: binding, guinea pig
T2 construct: The brains were then homogenized in 50 mM Tris HCl, buffer pH 7.7, using a Polytron; from tissue; host or cells: guinea pig brain homogenate (membrane pellet)
T2 sequence (P41144 whole entry): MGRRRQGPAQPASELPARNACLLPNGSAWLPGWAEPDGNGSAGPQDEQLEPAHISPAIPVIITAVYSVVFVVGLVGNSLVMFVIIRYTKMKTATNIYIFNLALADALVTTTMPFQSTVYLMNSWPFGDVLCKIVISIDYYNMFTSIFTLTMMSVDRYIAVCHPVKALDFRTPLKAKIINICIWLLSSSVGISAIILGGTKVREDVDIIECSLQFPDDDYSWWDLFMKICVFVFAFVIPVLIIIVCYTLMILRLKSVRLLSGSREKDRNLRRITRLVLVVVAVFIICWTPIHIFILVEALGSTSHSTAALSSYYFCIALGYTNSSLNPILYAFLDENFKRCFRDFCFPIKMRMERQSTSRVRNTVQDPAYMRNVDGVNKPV

[5] = test system: κ2 sites; assay type: binding, guinea pig
[6] = test system: kappa3 receptors; assay type: binding, guinea pig; settings: for Ki: read-out: Ki κ3 [^3H]NalBzoH
[7] = test system: electrically stimulated guinea pig ileum; assay: tissue or blood; assay type: cell-based; settings: for IC50: Cavia porcellus, read-out: Guinea Pig Ileum IC50 (nM)
[8] = test system: mu receptors; assay type: cell-based, guinea pig
[9] = biological target: T3, kappa receptors (Cavia porcellus, UniProt P41144); assay type: cell-based, guinea pig
T3 construct: The longitudinal muscle with the myenteric plexus attached was gently separated from the underlying circular muscle; from tissue; host or cells: guinea pig ileum longitudinal muscle with myenteric plexus
T3 sequence (P41144 whole entry): as above

[10] = test system: electrically stimulated mouse vas deferens; assay: tissue or blood; assay type: cell-based
[11] = test system: nociception (tail-flick); assay: Tail-flick test after subcutaneous administration; settings: rat tail-flick, sc; for analgesic activity in words / duration of maximal analgesic effect: dose equimolar to 5 mg/kg morphine
[12] = test system: morphine withdrawal signs; assay: Single dose substitution and precipitated morphine withdrawal in morphine dependent Rhesus monkeys; settings: sc, M3A6S 2.5 and 10.0 mg/kg, DM3A6S 3.0, 12.0 and […]
[13] = biological target: T4, δ opioid receptor (Mus musculus, UniProt P32300); assay: Antagonist activity (pA2) at δ in the functional assays; assay type: cell-based
T4 construct: from tissue; host or cells: organ-bath tissue, probably mouse vas deferens
T4 sequence (P32300 whole entry): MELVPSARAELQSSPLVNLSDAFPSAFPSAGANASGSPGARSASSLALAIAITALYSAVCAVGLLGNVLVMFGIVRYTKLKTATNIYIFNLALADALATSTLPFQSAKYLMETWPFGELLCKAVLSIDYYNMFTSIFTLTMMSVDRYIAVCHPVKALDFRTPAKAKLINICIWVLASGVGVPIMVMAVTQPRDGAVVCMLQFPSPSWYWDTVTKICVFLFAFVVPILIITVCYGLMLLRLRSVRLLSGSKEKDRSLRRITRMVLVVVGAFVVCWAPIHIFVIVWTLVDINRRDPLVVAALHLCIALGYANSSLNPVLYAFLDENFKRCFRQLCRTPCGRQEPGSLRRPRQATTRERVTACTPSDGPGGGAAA

[14] = biological target: T5, κ opioid receptor (Cavia porcellus, UniProt P41144); assay: Antagonist activity (pA2) at κ in the functional assays; assay type: cell-based
T5 construct: from tissue; host or cells: organ-bath tissue, probably guinea pig ileum
T5 sequence (P41144 whole entry): as the sequence (P41144 whole entry) above

[15] = Mus musculus, read-out: Mouse vas deferens maximum inhibition
[16] = icv, molar dose equivalent to the lower dose of morphine

Sequence of mu opioid receptors (A0ACM8Q262 1-400): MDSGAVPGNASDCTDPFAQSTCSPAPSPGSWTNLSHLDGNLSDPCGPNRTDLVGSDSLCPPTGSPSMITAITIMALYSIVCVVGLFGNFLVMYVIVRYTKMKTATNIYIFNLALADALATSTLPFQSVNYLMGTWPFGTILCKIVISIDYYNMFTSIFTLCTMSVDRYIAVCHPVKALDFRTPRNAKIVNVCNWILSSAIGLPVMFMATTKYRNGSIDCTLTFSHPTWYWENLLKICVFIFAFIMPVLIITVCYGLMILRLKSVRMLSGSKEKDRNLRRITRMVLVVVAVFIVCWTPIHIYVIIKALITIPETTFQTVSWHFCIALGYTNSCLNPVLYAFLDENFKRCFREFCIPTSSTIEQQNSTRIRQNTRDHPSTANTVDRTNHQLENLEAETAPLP

Structure (SMILES)	Ki [3] [nM]	Ki [4] [nM]	IC50 [5] [nM]	Ki [6] [nM]	Guinea pig ileum, result in words [7]	IC50 [7] [nM]	Guinea Pig Ileum DR with CTAP [8]	Guinea Pig Ileum Ke of CTAP [8]	Guinea Pig Ileum Ratio (CTAP) [8]	Guinea Pig Ileum DR with Nor-BNI [9]	Guinea Pig Ileum Ke of Nor-BNI [9]	Guinea Pig Ileum Ratio (Nor-BNI) [9]	further results
CN1CC[C@]23c4c5ccc(O)c4O[C@H]2[C@@H](O)C=C[C@H]3[C@H]1C5 [Morphine, morphine]	–	–	–	–	–	–	–	–	–	–	–	–	onset of analgesic response after icv injection ([1]; higher dose 23.6 μg/4 μl/rat): 6 min
CC(=O)Oc1ccc2c3c1O[C@H]1[C@@H](OS(=O)(=O)O)C=C[C@H]4[C@@H](C2)N(C)CC[C@@]341 [NIDA # 20,264, 3-O-Acetylmorphine-6-O-sulfate]	308	1160	> 10000	5.5	inhibited electrically induced twitches	25.9 ± 5.3	5.40 ± 0.18	22.73 ± 0.91	0.851	1.39 ± 0.14	54.42 ± 19.6	0.001	Ki mu/Ki delta [2]: 0.0026; affinity to mu receptors in words [2]: greater affinity than that of morphine; selectivity for mu-receptors, greater than morphine [2]: 3 fold; binding to kappa1 sites in words [4]: weakly; affinity to kappa3 receptors in words [6]: greater affinity than that of morphine; selectivity for kappa3 receptors, greater than morphine [6]: 2.2 fold; inhibition at 200 µM [10, 15]: 30%; duration of maximal analgesia [1, 16]: 90 min; time to maximal analgesic effect [1, 16]: 10 min; analgesic activity in words [11]: analgesic profile similar to that of M6S; duration of maximal analgesic effect [11]: 4 h; substitution for morphine / withdrawal, in words [12]: did not substitute for morphine, nor did it exacerbate withdrawal
CN1CC[C@]23c4c5ccc(O)c4O[C@H]2[C@@H](OS(=O)(=O)O)C=C[C@H]3[C@H]1C5 [NIDA # 20,266, Morphine-6-O-Sulfate]	18	1190	> 10000	6.3	inhibited electrically induced twitches	67 ± 12.1	5.00 ± 2.16	29.18 ± 15.7	0.663	0.87 ± 0.06	–	–	affinity to mu receptors in words [2]: greater affinity than that of morphine; selectivity for mu-receptors, greater than morphine [2]: 3 fold; affinity to delta receptors in words [3]: greater affinity than that of morphine; binding to kappa1 sites in words [4]: weakly; affinity to kappa3 receptors in words [6]: greater affinity than that of morphine; selectivity for kappa3 receptors, greater than morphine [6]: 2.2 fold; duration of maximal analgesia [1, 16]: 70 min; analgesic activity in words [11]: maximal analgesic effect similar to morphine; duration of maximal analgesic effect [11]: over 3 hours
CC(=O)Oc1ccc2c3c1O[C@H]1[C@@H](OS(=O)(=O)[O-])C=C[C@H]4[C@@H](C2)[N+](C)(C)CC[C@@]341 [NIDA # 20,269, 3-O-Acetyl-N-methylmorphinium-6-O-sulfate]	842	–	> 10000	400	no activity; also recorded: lacks activity	–	–	–	–	–	–	–	Mouse vas deferens, result in words [10]: lacks activity; inhibition at 200 µM [10, 15]: 20%; analgesic activity in words ([11]; listed as MM3A6S): devoid of any analgesic properties; also recorded: inactive
CN1CC[C@]23c4c5ccc(OC(=O)C(C)(C)C)c4O[C@H]2[C@@H](OS(=O)(=O)O)C=C[C@H]3[C@H]1C5 [NIDA # 20,272, 3-O-Pivaloylmorphine-6-O-sulfate]	15.2	1940	> 10000	11.2	–	69.3 ± 25	4.50 ± 0.14	–	0.676	1.13 ± 0.01	154.77 ± 16.8	0.0004	inhibition at 20 µM [10, 15]: 26.2%
CN1CC[C@]23c4c5ccc(OC(=O)c6ccccc6)c4O[C@H]2[C@@H](OS(=O)(=O)O)C=C[C@H]3[C@H]1C5 [NIDA # 20,273, 3-O-Benzoylmorphine-6-O-sulfate]	600	–	> 10000	513	inhibited electrically induced twitches	658 ± 130	3.68 ± 0.27	34.92 ± 3.22	0.554	1.31 ± 0.13	70.73 ± 29.13	0.001	inhibition at 100 µM [10, 15]: 29.4%; analgesic activity in words ([11]; listed as M3B6S): gradual onset of weak analgesia; also recorded: inactive; maximum analgesia, % of maximal analgesia ([11]; equimolar dose, over 4 hours): 27%
C=CCN1CC[C@]23c4c5ccc(O)c4O[C@H]2/C(=N/NC(=O)c2ccccc2)CC[C@@]3(O)[C@H]1C5 [NalBzoH, naloxone benzoylhydrazone]	1.4	0.4	66.5	0.3	–	–	–	–	–	–	–	–	Kb [13]: 17.4 nM; Kb [14]: 17.4 nM
Oc1ccc2c3c1O[C@H]1c4[nH]c5ccccc5c4C[C@@]4(O)[C@@H](C2)N(CC2CC2)CC[C@]314 [Naltrindole]	–	7.8	540	12.4	–	–	–	–	–	–	–	–	Kb [13]: 0.012 nM; Kb [14]: 24.5 nM
